Converted amounts (≈) assume the structure as drawn. The source made the active and inactive calls. The rule behind the calls is not given here.
Key:
Staphylococcus aureus [1] = assay: Antibacterial activity against methicillin-sensitive Staphylococcus aureus ATCC 25923 after 20 to 24 hrs; type: functional
Staphylococcus aureus [2] = assay: Bactericidal activity against methicillin-sensitive Staphylococcus aureus ATCC 6538 after 24 and 48 hrs; type: functional
[3] = Solubility of the compound at pH 2; type: physicochemical; conditions: buffer
[4] = Solubility of the compound at pH 6.5; type: physicochemical; conditions: buffer
Staphylococcus aureus [5] = assay: Antibacterial activity against methicillin-sensitive Staphylococcus aureus ATCC 49775 after 20 to 24 hrs; type: functional
Staphylococcus aureus [6] = assay: Antibacterial activity against methicillin-sensitive Staphylococcus aureus ATCC 29213 after 20 to 24 hrs; type: functional
Staphylococcus aureus [7] = assay: Bactericidal activity against […] Staphylococcus aureus clinical isolate USA300 assessed as log reduction in bacterial cell number at 4 times MIC after 8 hrs by time-kill curve analysis; type: functional
Staphylococcus aureus [8] = assay: Bactericidal activity against methicillin-sensitive Staphylococcus aureus ATCC 29213 assessed as log reduction in bacterial cell number at 8 times MIC after 8 hrs by time-kill curve analysis; type: functional
Staphylococcus aureus [9] = assay: Antibacterial activity against methicillin-sensitive Staphylococcus aureus ATCC 6538 after 20 to 24 hrs; type: functional
[10] = Toxicity in po dosed rat; type: organism-based; conditions: in vivo
Staphylococcus aureus [11] = assay: Antibacterial activity against Staphylococcus aureus ATCC 29213 after 20 to 24 hrs in presence of 2% heat inactivated bovine serum; type: functional
Staphylococcus aureus [12] = assay: Bactericidal activity against methicillin-sensitive Staphylococcus aureus ATCC 29213 after 24 and 48 hrs; type: functional
Staphylococcus aureus [13] = assay: Antibacterial activity against methicillin-sensitive Staphylococcus aureus ATCC 49775 after 20 to 24 hrs in presence of 50% heat inactivated bovine serum; type: functional
[14] = Toxicity in po dosed male rabbit; type: organism-based, Oryctolagus cuniculus; conditions: in vivo
Staphylococcus aureus [15] = assay: Bactericidal activity against Methicillin-sensitive Staphylococcus aureus ATCC 29213 assessed as log reduction in bacterial cell number at 4 times MIC after 24 hrs by time kill curve analysis; type: functional, organism-based
[16] = Lipophilicity, logD of the compound at pH 7.4; type: physicochemical; conditions: buffer
Staphylococcus aureus [17] = assay: Antibacterial activity against methicillin-resistant Staphylococcus aureus clinical isolate after 20 to 24 hrs; type: functional
Staphylococcus aureus [18] = assay: Bactericidal activity against methicillin-sensitive Staphylococcus aureus clinical isolate USA300 assessed as log reduction in bacterial cell number at MIC after 8 hrs by time-kill curve analysis; type: functional
Staphylococcus aureus [19] = assay: Bactericidal activity against methicillin-resistant Staphylococcus aureus clinical isolate after 24 and 48 hrs; type: functional
[20] = Cytotoxicity against human HEL299 cells after 24 hrs by WST-1 based colorimetric assay; type: cell-based, HEL 299
[21] = Selectivity index, ratio of GI50 for human HepG2 cells to MIC50 for methicillin-sensitive Staphylococcus aureus clinical isolate; type: functional

Question: For `N=C(N/N=C/c1ccc(Cl)cc1)N/N=C/c1ccc(Cl)cc1` [ROBENIDINE], which MIC90 (Staphylococcus aureus [1]) is on record?
Answer: 5.4 µM (≈ 1.8 µg/mL)

Question: And the MBC (Staphylococcus aureus [2])?
Answer: 5.4 µM (≈ 1.8 µg/mL)

Question: And the solubility [3]?
Answer: 6.3 µg/mL (≈ 18.9 µM)

Question: What about the solubility [4] of the same compound?
Answer: < 1.6 µg/mL

Question: And the MIC90 (Staphylococcus aureus [5])?
Answer: 5.4 µM (≈ 1.8 µg/mL)

Question: And the MIC90 (Staphylococcus aureus [6])?
Answer: 5.4 µM (≈ 1.8 µg/mL)

Question: And the Activity (Staphylococcus aureus [7])?
Answer: >=4 log10CFU/ml

Question: What about the Activity (Staphylococcus aureus [8]) of the same compound?
Answer: >=4 log10CFU/ml

Question: And the MIC90 (Staphylococcus aureus [9])?
Answer: 5.4 µM (≈ 1.8 µg/mL)

Question: And the LD50 [10]?
Answer: 3000 mg/kg

Question: And the MIC90 (Staphylococcus aureus [11])?
Answer: 43.1 µM

Question: And the MBC (Staphylococcus aureus [12])?
Answer: 5.4 µM (≈ 1.8 µg/mL)

Question: And the MIC90 (Staphylococcus aureus [13])?
Answer: > 250 µM

Question: What about the LD50 [14] of the same compound?
Answer: 1500 mg/kg

Question: And the Activity (Staphylococcus aureus [15])?
Answer: inactive

Question: What about the logD [16] of the same compound?
Answer: 4.5

Question: What about the MIC90 (Staphylococcus aureus [17]) of the same compound?
Answer: 5.4 µM (≈ 1.8 µg/mL)

Question: What about the Activity (Staphylococcus aureus [18]) of the same compound?
Answer: >=4 log10CFU/ml

Question: And the MBC (Staphylococcus aureus [19])?
Answer: 5.4 µM (≈ 1.8 µg/mL)

Question: And the GI50 at 24 h [20]?
Answer: 17.7 µM

Question: And the “Selectivity Index” value [21]?
Answer: 2

Reference: ChEMBL document CHEMBL3779887, “Robenidine Analogues as Gram-Positive Antibacterial Agents” (J Med Chem, 2016)
